US10226452B2, “Benzoxazolone derivatives as acid ceramidase inhibitors, and their use as medicaments” (FONDAZIONE ISTITUTO ITALIANO DI TECNOLOGIA, priority 2014, dated 2019)

Experiments:
SW403 cells = experiment: cells; conditions: Homo sapiens, SW-403, read-out: EC50, SW403 cell viability
Description: Combinatory index calculation of cell viability data analyzed with CompuSyn Software. The resulting combination index (CI) offers quantitative definition for additive effect (CI=1), synergism (CI<1), and antagonism (CI>1) in drug combinations. Results are expressed as mean±s.e.m. (n=8-16) of three independent experiments.
Finally, the CellTiter-Glo® Luminescent Cell Viability Assay can be used to determine the number of viable cells in culture based on quantitation of the ATP present, which signals the presence of metabolically active cells. Briefly, a volume of CellTiter-Glo® Reagent equal to the volume of cell culture medium present in each well is added to 96-well plates after drug treatment. Contents are mixed for 2 minutes on an orbital shaker to induce cell lysis and plate was incubated at room temperature for 10 minutes to stabilize signal before reading luminescence.
The compounds were added to the cultures once every 24 hours over a period of 72 hours and the effects of the combined treatments were evaluated using CompuSyn Software.

[1] = biological target: human (hAC) acid ceramidase (Homo sapiens (Human), UniProt Q13510); experiment: fluorescent-based in vitro assay on human acid ceramidase; type: biochemical; conditions: hAC-enriched lysosomal lysate from HEK293 cells; fluorogenic probe 5 μM; pH 4.5
Chain of human (hAC) acid ceramidase (Q13510 22-142): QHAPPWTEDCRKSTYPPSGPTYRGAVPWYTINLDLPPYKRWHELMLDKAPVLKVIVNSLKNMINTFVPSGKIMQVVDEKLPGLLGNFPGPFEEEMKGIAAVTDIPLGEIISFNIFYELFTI
Chain of human (hAC) acid ceramidase (Q13510 143-395): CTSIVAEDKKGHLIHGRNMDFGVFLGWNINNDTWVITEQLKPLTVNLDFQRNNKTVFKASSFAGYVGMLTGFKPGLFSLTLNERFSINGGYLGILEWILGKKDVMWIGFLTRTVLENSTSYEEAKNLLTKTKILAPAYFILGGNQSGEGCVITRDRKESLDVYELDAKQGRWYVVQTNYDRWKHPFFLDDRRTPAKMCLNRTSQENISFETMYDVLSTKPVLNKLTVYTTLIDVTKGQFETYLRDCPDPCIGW
Description: To evaluate the potency of the compounds towards acid ceramidase, a fluorescence-based in vitro assay previously described in literature (Bedia C et al., ChemBioChem, 2007, 8, 642-648) was implemented and optimized. This assay is based on a “fluorogenic probe” containing a coumarin group and a sphingoid base moiety (see figure below), which is not fluorescent in itself, but upon enzymatic cleavage by acid ceramidase followed by a chemical transformation liberates the fluorescent molecule umbelliferone (7-hydroxychromen-2-one). By quantifying the generation of umbelliferone using a fluorescence plate-reader, the level of enzymatic activity can be measured, whereby IC50 values of compounds that inhibit this activity can be generated.
Lysosomal lysate, enriched with acid ceramidase, was prepared from a cell line stably expressing human acid ceramidase. In the assay, the fluorogenic probe (or substrate) serves as a ceramide-analogue, which is recognized and hydrolyzed at the amide bond by acid ceramidase from the enriched lysate to yield the fatty acid and coumarinic aminodiol. By treating the solution with sodium periodate (NaIO4), the coumarinic aminodiol is subsequently oxidized into an aldehyde intermediate, which undergoes a β-elimination reaction to release the strongly fluorescent umbelliferone.
A lysosomal human acid ceramidase protein preparation was obtained from HEK293 cells stably expressing acid ceramidase suspended in 20 mM Tris HCl (pH 7.5) with 0.32 M sucrose. The cell solution was sonicated and centrifuged at 800×g for 15 min at 4° C. Supernatants were then centrifuged at 12,000×g for 30 min at 4° C. Pellets were re-suspended in PBS pH 7.4 and subjected to two freeze-thaw cycles at −80° C. The suspension was finally centrifuged at 105,000×g for 1 hour at 4° C. and protein concentration was measured in the supernatant with bicinchinonic-acid based protein assay. This human acid ceramidase-enriched preparation allowed us to further optimize the enzymatic assay and to use smaller amounts of lysate (2 μg/well) and substrate (5 μM).
The assay was performed in Optiplate 96-wells black plates, with each reaction well containing a mixture of 25 mM sodium acetate buffer pH 4.5 and a fixed amount of protein (2 μg) in a volume of 85 μL. After 30 mins of pre-incubation with test compounds (diluted 20× from DMSO stock solutions at different concentrations), the fluorogenic probe was added (diluted 20× from EtOH stock solution, final concentration 5 μM). After incubation for 3 hours at 37° C., the reactions were stopped with 50 μL of methanol and 100 μL of a 2.5 mg/mL NalO4 fresh solution in 100 mM Glycine/NaOH pH 10.6. The plate was incubated at 37° C. for 2 hours in the dark and fluorescence intensities were measured at excitation/emission wavelengths of 360/446 nm. Negative control samples consisted of the same incubation mixture in the absence of protein extracts. The IC50 values or percent of inhibition, at the indicated concentration, of selected compounds described in the invention are reported in Table 2.

Row | EC50 (SW403 cells) [nM] | IC50 [1] [nM] | SMILES
1 | 736 | – | O=c1[nH]cc(F)c(=O)[nH]1 [Example 5-FU, 5-fluorouracil]
2 | – | 49 | O=C(NCCCc1cccc(F)c1)n1c(=O)oc2ccccc21 [Example 50, N-[3-(3-Fluorophenyl)propyl]-2-oxo-1,3-benzoxazole-3-carboxamide]
3 | – | 152 ± 87 | O=C(NCCCCc1ccccc1)n1c(=O)oc2cc(O)ccc21 [Example 35, 6-Hydroxy-2-oxo-N-(4-phenylbutyl)-1,3-benzoxazole-3-carboxamide]
